Measurements as given in US20260337156A1, “SOLUBILIZING COMPOUNDS” (Vivesto AB, priority 2022, published 2026).
“Also recorded” adds a separate entry of the source.

Test: particle size and polydispersity index of drug micelles over time (ZetaSizer)
Format: physicochemical
Conditions: for change of particle size and polydispersity index over time: 0-24 h
Method: Micellar size was measured using a ZetaSizer from Malvern Panalytical.
(§1) A stock solution of docetaxel in methanol was mixed with a stock solution of compound 1 in a round bottom flask. The mixture was evaporated to dryness in a rotary evaporator. Final drying was performed in a desiccator to remove residual solvent. Hydration of the dried film was performed by adding water for injection (1.0 mL) to a concentration of 1 mg/mL of docetaxel. The resulting solution was filtered through a 0.22 μm sterile filter and further diluted with 0.9% sodium chloride solution to 0.5 mg/mL of docetaxel. […]
(§2) A stock solution of cyclosporin in methanol was mixed with a stock solution of compound 1 in a round bottom flask. The mixture was evaporated to dryness in a rotary evaporator. Final drying was performed in a desiccator to remove residual solvent. Hydration of the dried film was performed by adding water for injection (1.0 mL) to a concentration of 1 mg/mL of cyclosporin. The resulting solution was filtered through a 0.22 μm sterile filter and further diluted with 0.9% sodium chloride solution to 0.5 mg/mL of cyclosporin. The final weight ratio of cyclosporin to micelle forming agent was 1:3.
(§3) A stock solution of docetaxel in methanol was mixed with a stock solution of compound 3 in a round bottom flask. The mixture was evaporated to dryness in a rotary evaporator. Final drying was performed in a desiccator to remove residual solvent. Hydration of the dried film was performed by adding water for injection (1.0 mL) to a concentration of 1 mg/mL of docetaxel. The resulting solution was filtered through a 0.22 μm sterile filter and further diluted with 0.9% sodium chloride solution to 0.5 mg/mL of Docetaxel. The final weight ratio of docetaxel to micelle forming agent was 1:3.
as §2, with “compound 3” for “compound 1”
as §1, with “compound 4” for “compound 1”
as §3, with “compound 5” for “compound 3”, “of docetaxel.” for “of Docetaxel.”
A stock solution of cabazitaxel in methanol was mixed with a stock solution of compound 5 in a round bottom flask. The mixture was evaporated to dryness in a rotary evaporator. Final drying was performed in a desiccator to remove residual solvent. Hydration of the dried film was performed by adding water for injection (1.0 mL) to a concentration of 1 mg/mL of cabazitaxel. […]

[1] = cyclosporin:compound 1:3, cyclosporin 0.5 mg/mL
[2] = cyclosporin:compound 1:3, cyclosporin 0.5 mg/mL, time 0 h
[3] = cyclosporin:compound 1:3, cyclosporin 0.5 mg/mL, time 1 h
[4] = cyclosporin:compound 1:3, cyclosporin 0.5 mg/mL, time 2 h
[5] = cyclosporin:compound 1:3, cyclosporin 0.5 mg/mL, time 4 h
[6] = cyclosporin:compound 1:3, cyclosporin 0.5 mg/mL, time 6 h
[7] = cyclosporin:compound 1:3, cyclosporin 0.5 mg/mL, time 24 h
[8] = docetaxel:compound 1:5, docetaxel 0.5 mg/mL, time 0 h
[9] = docetaxel:compound 1:5, docetaxel 0.5 mg/mL, time 1 h
[10] = docetaxel:compound 1:5, docetaxel 0.5 mg/mL, time 2 h
[11] = docetaxel:compound 1:5, docetaxel 0.5 mg/mL, time 4 h
[12] = docetaxel:compound 1:5, docetaxel 0.5 mg/mL, time 6 h
[13] = docetaxel:compound 1:5, docetaxel 0.5 mg/mL, time 24 h
[14] = docetaxel:compound 1:3, docetaxel 0.5 mg/mL, time 0 h
[15] = docetaxel:compound 1:3, docetaxel 0.5 mg/mL, time 1 h
[16] = docetaxel:compound 1:3, docetaxel 0.5 mg/mL, time 2 h
[17] = docetaxel:compound 1:3, docetaxel 0.5 mg/mL, time 4 h
[18] = docetaxel:compound 1:3, docetaxel 0.5 mg/mL, time 6 h
[19] = docetaxel:compound 1:3, docetaxel 0.5 mg/mL, time 24 h

Row | SMILES | change of particle size and polydispersity index over time [1] | Particle size [2] | Polydispersity index [2] | Particle size [3] | Polydispersity index [3] | Particle size [4] | Polydispersity index [4] | Particle size [5] | Polydispersity index [5] | Particle size [6] | Polydispersity index [6] | Particle size [7] | Polydispersity index [7] | other results
1 | COc1cc(C)c(/C=C/C(C)=C/C=C/C(C)=C/C(=O)N(CCS(=O)(=O)[O-])C2CCCCC2)c(C)c1C.[Na+] [Compound 1] | Small increases in the particle size and variations of polydispersity index over time were noted; also recorded: The changes were within acceptable range | 30.71 nm | 0.10 | 44.70 nm | 0.22 | 41.29 nm | 0.10 | 44.53 nm | 0.10 | 49.61 nm | 0.19 | 51.37 nm | 0.14 | change of particle size and polydispersity index over time (docetaxel:compound 1:5, docetaxel 0.5 mg/mL): Small increases in the particle size and polydispersity index over time were noted; also recorded: The changes were within acceptable range; Particle size [8]: 30.77 nm; Polydispersity index [8]: 0.10; Particle size [9]: 36.60 nm; Polydispersity index [9]: 0.16; Particle size [10]: 39.44 nm; Polydispersity index [10]: 0.16; Particle size [11]: 41.38 nm; Polydispersity index [11]: 0.18; Particle size [12]: 41.19 nm; Polydispersity index [12]: 0.20; Particle size [13]: 43.98 nm; Polydispersity index [13]: 0.21
2 | COc1cc(C)c(/C=C/C(C)=C/C=C/C(C)=C/C(=O)N(C)CCS(=O)(=O)[O-])c(C)c1C.[Na+] [Compound 3] | Small variations in the particle size and polydispersity index over time were noted; also recorded: The changes were within acceptable range | 8.46 nm | 0.31 | 6.77 nm | 0.21 | 6.60 nm | 0.19 | 6.58 nm | 0.18 | 6.68 nm | 0.21 | 7.39 nm | 0.32 | change of particle size and polydispersity index over time (docetaxel:compound 1:3, docetaxel 0.5 mg/mL): Small variations in the particle size and polydispersity index over time were noted; also recorded: The changes were within acceptable range; Particle size [14]: 6.19 nm; Polydispersity index [14]: 0.11; Particle size [15]: 7.19 nm; Polydispersity index [15]: 0.11; Particle size [16]: 10.06 nm; Polydispersity index [16]: 0.26; Particle size [17]: 10.18 nm; Polydispersity index [17]: 0.27; Particle size [18]: 10.25 nm; Polydispersity index [18]: 0.27; Particle size [19]: 6.20 nm; Polydispersity index [19]: 0.14
